Here are results for 6 molecules from paper PMC10786919, “Design-rules for stapled peptides with in vivo activity and their application to Mdm2/X antagonists” (Nature Communications, 2024).

Like-named read-outs stand apart in the source and are kept apart here. Positions of bridges follow the written chain, without caps; N, C: chain ends. Non-standard residues stand in square brackets, D forms with d. Residues, ends and D or L forms follow the SMILES beside them. R8 = C=CCCCCCC[C@@](C)(N)C(=O)O; S5 = C=CCCC[C@](C)(N)C(=O)O; Dap = NC[C@H](N)C(=O)O; Ahx = NCCCCCC(=O)O

The nature of series [1]: Lactate dehydrogenase (LDH) release assay. It is filed as cell-based. The protocol:
(§1) HCT116 cells were stably transfected with a p53 responsive β-lactamase reporter and expanded in McCoy’s 5 A Medium with 10% fetal bovine serum (FBS), Blasticidin, and Penicillin/Streptomycin and then transferred to 1.5 ml freezing vials and stored under liquid nitrogen in growth media containing 5% DMSO. […] The cells were then seeded into a 384-well plate at a density of 8000 cells per well. […] The final working concentration of DMSO was 0.5%. Lactate dehydrogenase release was detected using the CytoTox-ONE Homogenous Membrane Integrity Assay Kit (Promega), as per the manufacturer’s instructions. Measurements were carried out using the Tecan plate reader. […] Measurements were taken a minimum of three times (biological replicates) and values are reported as geometric means of the replicates.

Another series relates to HCT116 cells. The series can be described thus: Lactate dehydrogenase (LDH) release assay. It is filed as cell-based. The protocol: as §1

In series [1] (LDH: Cytotoxicity assay: EC50), `CC(=O)N[C@@H](CCCCN=[N+]=[N-])C(=O)NCCC(=O)N[C@@H](CC(C)C)C(=O)N[C@H](C(=O)N[C@@H](Cc1ccccc1)C(=O)N[C@]1(C)CCCCCCC=CCCC[C@@](C)(C(=O)N[C@@H](CO)C(=O)N[C@@H](C)C(=O)N[C@@H](C)C(N)=O)NC(=O)[C@H](CC2CCC2)NC(=O)[C@H](CCC(N)=O)NC(=O)[C@H](C)N(C)C(=O)[C@H](Cc2c[nH]c3ccccc23)NC(=O)[C@H](Cc2ccc(O)cc2)NC(=O)[C@H](CCC(=O)O)NC1=O)[C@@H](C)O` [MP-498] returned an EC50 of over 50 µM. Besides, the “LDH: Cytotoxicity assay: % Effect” value in the series with HCT116 cells was 7.026%.

Consider `CC(=O)N[C@H](CC(C)C)C(=O)N[C@H](C(=O)N[C@@H](Cc1ccccc1)C(=O)N[C@]1(C)CCCCCCC=CCCC[C@@](C)(C(=O)N[C@@H](CO)C(=O)N[C@@H](C)C(=O)N[C@H](C)C(N)=O)NC(=O)[C@H](CC2CCC2)NC(=O)[C@H](CC(C)C)NC(=O)[C@H](CCC(N)=O)NC(=O)[C@H](Cc2c[nH]c3ccccc23)NC(=O)[C@H](Cc2ccc(O)cc2)NC(=O)[C@H](CCC(=O)O)NC1=O)[C@@H](C)O` [MP-7202], for which the EC50 in series [1] (LDH: Cytotoxicity assay: EC50) was over 50.6 µM.

The molecule `CC(=O)N[C@@H](CN)C(=O)N[C@@H](CN)C(=O)NCCCCCC(=O)N[C@H](C(=O)N[C@@H](CO)C(=O)N[C@@H](Cc1ccccc1)C(=O)N[C@]1(C)CCCCCCC=CCCC[C@@](C)(C(=O)N[C@@H](CCC(=O)O)C(=O)N[C@@H](CC(N)=O)C(=O)N[C@@H](Cc2ccccc2)C(N)=O)NC(=O)[C@H](CC(C)C)NC(=O)[C@H](CC(C)C)NC(=O)[C@H](C)NC(=O)[C@H](Cc2c[nH]c3ccccc23)NC(=O)[C@H](Cc2ccc(O)cc2)NC(=O)[C@H](CCC(=O)O)NC1=O)[C@@H](C)O` [MP-663] (Ac-[Dap][Dap][Ahx]TSF[R8]EYWALL[S5]ENF-NH2; staple 7-14) had a 50% effective concentration (EC50) in series [1] (LDH: Cytotoxicity assay EC50) of over 50 µM.

Turning to `CC(C)C[C@H](NC(=O)CCNC(=O)[C@@H](N)CCCCN=[N+]=[N-])C(=O)N[C@H](C(=O)N[C@@H](Cc1ccccc1)C(=O)N[C@]1(C)CCCCCCC=CCCC[C@@](C)(C(=O)N[C@@H](CO)C(=O)N[C@@H](C)C(=O)N[C@@H](C)C(N)=O)NC(=O)[C@H](CC2CCC2)NC(=O)[C@H](CCC(N)=O)NC(=O)[C@H](C)NC(=O)[C@H](Cc2c[nH]c3ccccc23)NC(=O)[C@H](Cc2ccc(O)cc2)NC(=O)[C@H](CCC(=O)O)NC1=O)[C@@H](C)O` [MP-618], the EC50 in series [1] (LDH: Cytotoxicity assay: EC50) is over 50.7 µM.

In series [1] (LDH: Cytotoxicity assay: EC50), `CC(=O)N[C@@H](CCCCN=[N+]=[N-])C(=O)NCCC(=O)N[C@@H](CC(C)C)C(=O)N[C@@H](CCC(=O)O)C(=O)N[C@@H](Cc1ccccc1)C(=O)N[C@@]1(C)CCCCCCC=CCCC[C@@](C)(C(=O)N[C@@H](CO)C(=O)N[C@@H](C)C(=O)N[C@@H](C)C(N)=O)NC(=O)[C@H](CC2CCC2)NC(=O)[C@H](CCC(N)=O)NC(=O)[C@H](C)NC(=O)[C@H](Cc2c[nH]c3ccccc23)NC(=O)[C@H](Cc2ccc(O)cc2)NC(=O)[C@H](CCC(=O)O)NC1=O` [MP-630] came in with a concentration giving a half-maximal response (EC50) of over 50.7 µM.

Regarding `CC(=O)N[C@@H](CCCCN=[N+]=[N-])C(=O)NCCC(=O)N[C@@H](CC(C)C)C(=O)N[C@H](C(=O)N[C@@H](Cc1ccccc1)C(=O)N[C@]1(C)CCCCC#CC#CCCC[C@@](C)(C(=O)N[C@@H](C)C(=O)N[C@@H](C)C(=O)NC(C)(CCC(=O)O)C(=O)N[C@@H](C)C(=O)N[C@@H](C)C(=O)N[C@H](C)C(N)=O)NC(=O)[C@H](CC2CCC2)NC(=O)[C@H](CCC(N)=O)NC(=O)[C@H](C)NC(=O)[C@H](Cc2c[nH]c3ccccc23)NC(=O)[C@H](Cc2ccc(O)cc2)NC(=O)[C@H](CCC(=O)O)NC1=O)[C@@H](C)O` (some centres unmarked) [MP-467, Ac-K(N3)-(betaAla)-LTF(X)EYWAQ(Cba)(X)AA(a-methly-Glu)AA(DAla)-NH2], the EC50 was over 50.7 µM in series [1] (0% FBS 4Hr, read-out: LDH: Cytotoxicity assay EC50) and over 50.7 µM in series [1] (10% FBS 16Hr, read-out: LDH: Cytotoxicity assay EC50).

As a reminder, the EC50 is the concentration giving half of the maximal effect.
